Tests used:
Type in all cases: cell-based, Sprague-Dawley rat
GFAP = assay: Western blot of TUBB3, GFAP and OLIG2 in differentiating neural stem cells; settings: NSCs without EGF and FGF2, 4 days, vs 0.1% DMSO, FIG. 1A
Description: (§1) Neural stem cells (NSCs) were cultured and harvested as previously reported (Faseb J 2018, 32 (2), 1108-1119). Specifically, the cells were harvested by dissecting the cerebral cortex from embryos of 14-day pregnant Sprague-Dawley rats (Orient Bio, Seongnam, South Korea). The cells were incubated for 6 days at 37° C. in 5% CO2 in Dulbecco's modified Eagle's medium (DMEM/F12) (Cat no. 12500-062, Gibco, Grand Island, NY, U.S.A.) containing Ham's nutrient mixture F-12 supplemented with 1% antibiotic-antimycotic (Cat no. 15240-062, Gibco), 2% B-27 supplement (Cat no. 17504-044, Gibco), 20 ng/ml EGF (Cat no. GF144, Chemicon, Burlington, MA, U.S.A.), and 20 ng/ml FGF2 (Cat no. GF003AF, Chemicon), so as to form neurospheres. The neurospheres were then dissociated into single cells using Accutase (Cat No. SCR005, Sigma-Aldrich, St. Louis, MO, U.S.A.). The cells were then attached to culture plates for one day in medium enriched with EGF and FGF2. […]
(§2) Chemiluminescence was detected on CP-BU new film (Agfa, Mortsel, Belgium) using western blotting luminol reagent (Cat no. sc-2048, Santa Cruz Biotechnology). Band intensity was quantified using ImageJ version 2.3.0. GAPDH (Glyceraldehyde-3-phosphate dehydrogenase) was measured as a housekeeping protein. […]

TUBB3 = assay: Western blot of TUBB3 in differentiating neural stem cells; settings: NSCs without EGF and FGF2, 4 days, vs 0.1% DMSO, FIG. 1A
Description: as §1, §2

OLIG2 = assay: Western blot of OLIG2 in differentiating neural stem cells; settings: NSCs without EGF and FGF2, 4 days, vs 0.1% DMSO, FIG. 1A
Description: as §1, §2

gfap mRNA = assay: RT-qPCR of gfap mRNA in differentiating neural stem cells; settings: 50 μM, 3 days without EGF and FGF2, vs 0.1% DMSO, FIG. 1B
Description: as §1
(§3) RNA was extracted using TRIzol® reagent (Cat no. 15596018, Thermo Fisher, Waltham, MA, U.S.A.) and dissolved in diethylpyrocarbonate-treated water (Cat no. C-9030, Bioneer, Daejeon, South Korea). Complementary DNA (cDNA) was synthesized from 1 μg of RNA per sample using a QuantiTect reverse transcriptase kit (Cat no. 205311, Qiagen, Hilden, Germany). […]

neural stem cells (NSCs) = assay: Immunocytochemistry (ICC) of differentiating neural stem cells
Description: Neural stem cells (NSCs) were cultured and harvested as previously reported (Faseb J 2018, 32 (2), 1108-1119). Specifically, the cells were harvested by dissecting the cerebral cortex from embryos of 14-day pregnant Sprague-Dawley rats (Orient Bio, Seongnam, South Korea). The cells were incubated for 6 days at 37° C. in 5% CO2 in Dulbecco's modified Eagle's medium (DMEM/F12) (Cat no. 12500-062, Gibco, Grand Island, NY, U.S.A.) containing Ham's nutrient mixture F-12 supplemented with 1% antibiotic-antimycotic (Cat no. 15240-062, Gibco), 2% B-27 supplement (Cat no. 17504-044, Gibco), 20 ng/ml EGF (Cat no. GF144, Chemicon, Burlington, MA, U.S.A.), and 20 ng/ml FGF2 (Cat no. GF003AF, Chemicon), so as to form neurospheres. The neurospheres were then dissociated into single cells using Accutase (Cat No. SCR005, Sigma-Aldrich, St. Louis, MO, U.S.A.). The cells were then attached to culture plates for one day in medium enriched with EGF and FGF2. Next, the NSCs were treated with DMEM/F12 medium containing 1% antibiotic-antimycotic, 2% B-27 supplement, and either DMSO (Cat no. 472301, Sigma-Aldrich) or various concentrations of CPI-455 (Cat no. HY-100421, Medchemexpress, Princeton, NJ, U.S.A.) dissolved in DMSO. The medium was replaced every 2 days. Cells for western blot and immunostaining were cultured for 4 days after treatment with CPI-455. Cells for RT-qPCR and ChIP-qPCR were cultured for 3 days after treatment with CPI-455.
Immunocytochemistry was performed as previously reported (Faseb J 2018, 32 (2), 1108-1119). Specifically, the cells were fixed in 4% paraformaldehyde solution (Cat no. P231, Biosesang, Seongnam, South Korea) for 30 minutes. The cells were blocked with 5% goat serum (Cat no. S26, Millipore) diluted in 0.2% Triton X-100 (Cat no. 0694-1L, VWR International, Radnor, PA, U.S.A.).
The cells were stained for 1 hour with the following primary antibodies: TUBB3 (1:1000; Cat no. T5076, Sigma-Aldrich) and GFAP (1:500; Cat no. Z0334, Dako, Santa Clara, CA, U.S.A.). Next, the following secondary antibodies were applied for 30 minutes: Alexa488 goat anti-mouse IgG (1:1000; Cat no. A21131, Invitrogen, Waltham, MA, U.S.A.) and Cy3 goat anti-rabbit IgG (1:1000; Cat no. 111-165-144, Jackson, West Grove, PA, U.S.A.).
The nuclei were stained by treating the cells with 0.01% DAPI (4′,6-diamidino-2-phenylindole) (Cat No. D9542, Sigma-Aldrich) in PBS solution for 5 minutes. Fluorescent images were captured using a Leica DM IL inverse fluorescent microscope and LAS X software (Leica, Wetzlar, Germany).
NSCs proliferate in the presence of an epidermal growth factor (EGF) and […] growth factor-2 (FGF2), and in the absence of growth factors in a medium, NSCs differentiate into neurons and astrocytes. […]

STAT3 = assay: Western blot of STAT3 expression and phosphorylation in neural stem cells; settings: 50 μM, 4 days, FIG. 3A
Description: as §1
Chemiluminescence was detected on CP-BU new film (Agfa, Mortsel, Belgium) using western blotting luminol reagent (Cat no. sc-2048, Santa Cruz Biotechnology). Band intensity was quantified using ImageJ version 2.3.0. GAPDH (Glyceraldehyde-3-phosphate dehydrogenase) was measured as a housekeeping protein.

bmp2 mRNA = assay: RT-qPCR of il-6, lif, cntf and bmp2 mRNA in neural stem cells; settings: 3 days, FIG. 3B
Description: as §1, §3

lif mRNA = assay: RT-qPCR of lif mRNA in neural stem cells; settings: 3 days, CPI-455-induced astrocytogenesis
Description: as §1, §3

[1] = 50 μM, 4 days without EGF and FGF2, vs 0.1% DMSO, FIGS. 2A and 2B

## CC(C)c1c(-c2ccccc2)[nH]c2c(C#N)cnn2c1=O [CPI-455, 4,7-dihydro-6-(1-methylethyl)-7-oxo-5-phenyl-pyrazolo[1,5-a]pyrimidine-3-carbonitrile]
GFAP
  GFAP protein expression compared to the control: significantly increased
TUBB3
  TUBB3 protein expression: no significant change
OLIG2
  OLIG2 protein expression: no significant change
Gfap mRNA
  gfap mRNA expression compared to the control: significantly increased
Neural stem cells (NSCs); [1]
  number of GFAP-positive cells: significantly increased
  percentage of TUBB3-positive cells: did not show any significant difference
Neural stem cells (NSCs); 4 days without EGF and FGF2, vs 0.1% DMSO
  number of DAPI-positive cells: No significant difference
Neural stem cells (NSCs); 4 days, inferred from DAPI-positive cell number
  cytotoxicity during NSC differentiation: not inducing cytotoxicity
STAT3
  phosphorylated STAT3 (pSTAT3) with respect to total STAT3: significantly increased
bmp2 mRNA; 50 μM
  bmp2 mRNA expression: significantly increased
bmp2 mRNA; comparison with il-6, lif, cntf
  bmp2 mRNA among the investigated cytokines (il-6, lif, cntf, bmp2): only cytokine mRNA that showed a significant increase
Lif mRNA
  lif expression: without an increase

Source: patent publication US20260317706A1, “COMPOSITION FOR INDUCING STEM CELLS TO DIFFERENTIATE INTO ASTROCYTES, CONTAINING CPI-455” (CHUNG ANG UNIVERSITY INDUSTRY ACADEMIC COOPERATION …, priority 2023, published 2026)
